Test results published in ChEMBL document CHEMBL1641551, “Glycosylated nordihydroguaiaretic acids as anti-cancer agents” (Bioorg Med Chem Lett, 2011).
Calls of active or inactive are those of the source. The calls are words filed in the database; no cut-off is given here.

What was measured:
[1] = system: MCF7; assay: Cytotoxicity against human MCF7 cells after 3 days by MTT assay; format: functional, cell-based
[2] = system: NCI/ADR-RES; assay: Cytotoxicity against human NCI/ADR-RES cells after 3 days by MTT assay; format: functional, cell-based
[3] = system: HT-29; assay: Cytotoxicity against human HT-29 cells after 3 days by MTT assay; format: functional, cell-based
[4] = Cytotoxicity against human Hep3B cells after 3 days by MTT assay; format: functional, cell-based, Hep 3B2; conditions: 72 h
[5] = system: LNCaP; assay: Cytotoxicity against human LNCAP cells after 3 days by MTT assay; format: functional, cell-based; conditions: 72 h

SMILES | IC50 ([1]; MCF7, 72 h) [µM] | IC50 ([2]; 72 h) [µM] | IC50 ([3]; HT-29, 72 h) [µM] | IC50 [4] [µM] | IC50 [5] [µM] | Activity [1] | Activity [2] | Activity [3]
COc1ccc(C[C@@H](C)[C@@H](C)Cc2ccc(OC)c(OC)c2)cc1OC [TERAMEPROCOL] | ≤ 10 | ≤ 10 | ≤ 10 | ≤ 10 | ≤ 10 |  |  | 
C[C@H](Cc1ccc(OCc2cn(CCCCCCO[C@@H]3O[C@H](CO)[C@H](O)[C@H](O)[C@H]3O)nn2)c(OCc2cn(CCCCCCO[C@@H]3O[C@H](CO)[C@H](O)[C@H](O)[C@H]3O)nn2)c1)[C@@H](C)Cc1ccc(OCc2cn(CCCCCCO[C@@H]3O[C@H](CO)[C@H](O)[C@H](O)[C@H]3O)nn2)c(OCc2cn(CCCCCCO[C@@H]3O[C@H](CO)[C@H](O)[C@H](O)[C@H]3O)nn2)c1 |  |  |  | 88 |  | inactive | inactive | inactive
C[C@H](Cc1ccc(OCc2cn(CCO[C@@H]3O[C@H](CO)[C@H](O)[C@H](O)[C@H]3O)nn2)c(OCc2cn(CCO[C@@H]3O[C@H](CO)[C@H](O)[C@H](O)[C@H]3O)nn2)c1)[C@@H](C)Cc1ccc(OCc2cn(CCO[C@@H]3O[C@H](CO)[C@H](O)[C@H](O)[C@H]3O)nn2)c(OCc2cn(CCO[C@@H]3O[C@H](CO)[C@H](O)[C@H](O)[C@H]3O)nn2)c1 |  |  |  |  |  | inactive | inactive | inactive
C[C@H](Cc1ccc(OCc2cn(CCCCCCO[C@@H]3O[C@H](CO)[C@@H](O)[C@H](O)[C@H]3O)nn2)c(OCc2cn(CCCCCCO[C@@H]3O[C@H](CO)[C@@H](O)[C@H](O)[C@H]3O)nn2)c1)[C@@H](C)Cc1ccc(OCc2cn(CCCCCCO[C@@H]3O[C@H](CO)[C@@H](O)[C@H](O)[C@H]3O)nn2)c(OCc2cn(CCCCCCO[C@@H]3O[C@H](CO)[C@@H](O)[C@H](O)[C@H]3O)nn2)c1 |  |  |  | 83 |  | inactive | inactive | inactive
C[C@H](Cc1ccc(OCc2cn(CCO)nn2)c(OCc2cn(CCO)nn2)c1)[C@@H](C)Cc1ccc(OCc2cn(CCO)nn2)c(OCc2cn(CCO)nn2)c1 |  |  |  |  |  | inactive | inactive | inactive
C[C@H](Cc1ccc(OCc2cn(CCCCCCO)nn2)c(OCc2cn(CCCCCCO)nn2)c1)[C@@H](C)Cc1ccc(OCc2cn(CCCCCCO)nn2)c(OCc2cn(CCCCCCO)nn2)c1 |  |  |  |  |  | inactive | inactive | inactive
